Eight compounds from patent US20250228239A1, “MOLECULES HAVING PESTICIDAL UTILITY, AND INTERMEDIATES, COMPOSITIONS, AND PROCESSES, RELATED THERETO” (priority 2024, published 2025) can be followed below.

Where two headings read alike, the source gives them in different places.

In test [1] the test system is Beet Armyworm (Spodoptera exigua, LAPHEG). The test can be described thus: Bioassays on Beet Armyworm (BAW), 128-well diet tray assay. It counts as in vivo. To be noted: Spodoptera exigua, read-out: BAW. The gist of the method: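 Mortality of second-instar larvae (1–5/well) on artificial diet treated with 50 μg/cm^2 compound, read after 5–7 days at 25° C.; values are means of eight wells.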

Test [2] concerns Cabbage Looper (Trichoplusia ni, TRIPNI). The test can be described thus: Bioassays on Cabbage Looper (CL), 128-well diet tray assay. It counts as in vivo. Particulars: Trichoplusia ni, read-out: CL. The gist of the method: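 Each of eight wells receives artificial diet treated at 50 μg/cm^2 with the test molecule, then one to five second-instar larvae. Incubation runs five to seven days at 25° C with a 14:10 light-dark cycle under vented covers. Mortality is scored per well as a percentage and averaged.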

Turning to `CC(=O)Nc1c(F)ccc(NC(=O)c2cc(NC(=O)[C@H]3[C@H](c4ccc(F)c(Br)c4)C3(Cl)Cl)ccc2Cl)c1F` [F1716, N-(3-Acetamido-2,4-difluorophenyl)-5-((1R,3R)-3-(3-bromo-4-fluorophenyl)-2,2-dichlorocyclopropane-1-carboxamido)-2-chlorobenzamide], the pest or weed control at 50 µg/cm2 lay within 50 to 100% in test [1] (Beet Armyworm, rating class) and 50 to 100% in test [2] (Cabbage Looper, rating class).
Take `Nc1cc(NC(=O)c2cc(NC(=O)[C@H]3[C@H](c4cc(Cl)cc(Cl)c4)C3(Cl)Cl)cc(F)c2Cl)c(F)cc1F` [F1399, N-(5-Amino-2,4-difluorophenyl)-2-chloro-5-((1R,3R)-2,2-dichloro-3-(3,5-dichlorophenyl)cyclopropane-1-carboxamido)-3-fluorobenzamide]: the pest or weed control at 50 µg/cm2 in test [1] (Beet Armyworm, rating class) was 50 to 100%; in test [2] (Cabbage Looper, rating class) it was 50 to 100%.
For `O=C(Nc1ccc(F)c(NC(=O)C(F)(F)C(F)F)c1F)c1cc(NC(=O)[C@H]2[C@H](c3cccc(C(F)(F)F)c3)C2(Cl)Cl)ccc1Cl` [F1677, 2-Chloro-5-((1R,3R)-2,2-dichloro-3-(3-(trifluoromethyl)phenyl)cyclopropane-1-carboxamido)-N-(2,4-difluoro-3-(2,2,3,3-tetrafluoropropanamido)phenyl)benzamide], the pest or weed control at 50 µg/cm2 in test [1] (Beet Armyworm, rating class) was in the range of 50 to 100%; in test [2] (Cabbage Looper, rating class) it was 50 to 100%.
Take `O=C(Nc1ccc(F)c(NC(=O)C(F)(F)c2ccccc2)c1F)c1cc(NC(=O)[C@H]2[C@H](c3ccc(Cl)c(Cl)c3)C2(Cl)Cl)ccc1Cl` [F1471, 2-Chloro-5-((1R,3R)-2,2-dichloro-3-(3,4-dichlorophenyl)cyclopropane-1-carboxamido)-N-(3-(2,2-difluoro-2-phenylacetamido)-2,4-difluorophenyl)benzamide]: the pest or weed control at 50 µg/cm2 fell in the range of 50 to 100% in test [1] (Beet Armyworm, rating class) and 50 to 100% in test [2] (Cabbage Looper, rating class).
For the compound `Cc1cc(NC(=O)[C@H]2[C@H](c3cc(Cl)c(Cl)c(Cl)c3)C2(Cl)Cl)cc(C(=O)Nc2c(F)ccc(NC(=O)C(F)F)c2F)c1Cl` [F1431, 2-Chloro-5-((1R,3R)-2,2-dichloro-3-(3,4,5-trichlorophenyl)cyclopropane-1-carboxamido)-N-(3-(2,2-difluoroacetamido)-2,6-difluorophenyl)-3-methylbenzamide], the pest or weed control at 50 µg/cm2 in test [1] (Beet Armyworm, rating class) was 50 to 100%; in test [2] (Cabbage Looper, rating class) it was 50 to 100%.
`O=C(Nc1ccc(F)c(NC(=O)[C@@H]2CCCN2)c1F)c1cc(NC(=O)[C@H]2[C@H](c3ccc(Cl)c(Cl)c3)C2(Cl)Cl)ccc1Cl` [F1664, (S)—N-(3-(2-chloro-5-((1R,3R)-2,2-dichloro-3-(3,4-dichlorophenyl)cyclopropane-1-carboxamido)benzamido)-2,6-difluorophenyl)pyrrolidine-2-carboxamide]: the pest or weed control at 50 µg/cm2 lay within 50 to 100% in test [1] (Beet Armyworm, rating class) and 50 to 100% in test [2] (Cabbage Looper, rating class).
For the compound `O=C(Nc1ccc(F)cc1)c1cc(NC(=O)[C@H]2[C@H](c3ccc(F)c(Cl)c3)C2(Cl)Cl)cc(Cl)c1F` (relative stereo) [F1195, trans-3-Chloro-5-(2,2-dichloro-3-(3-chloro-4-fluorophenyl)cyclopropane-1-carboxamido)-2-fluoro-N-(4-fluorophenyl)benzamide], the pest or weed control at 50 µg/cm2 in test [1] (Table ABC: Biological Results, species BAW) is 50 to 100%; in test [2] (Table ABC: Biological Results, species CL) it was 50 to 100%.
As for `CC1OC1C(=O)Nc1c(F)ccc(NC(=O)c2cc(NC(=O)[C@H]3[C@H](c4ccc(F)c(C(F)(F)F)c4)C3(Cl)Cl)ccc2Cl)c1F` (stereo partly drawn) [F1748, N-(3-(2-Chloro-5-((1R,3R)-2,2-dichloro-3-(4-fluoro-3-(trifluoromethyl)phenyl)cyclopropane-1-carboxamido)benzamido)-2,6-difluorophenyl)-3-methyloxirane-2-carboxamide], the pest or weed control at 50 µg/cm2 in test [1] (Beet Armyworm, rating class) is 50 to 100%; in test [2] (Cabbage Looper, rating class) it was 50 to 100%.
